One may read the melting point as the temperature of the solid-liquid transition.

`CCNC(=O)C(=O)[C@H](Cc1ccccc1)NC(=O)[C@H](CC(C)C)NC(=O)OCCOC` [compound 1, ((1S)-1-((((1S)-1-Benzyl-2,3-dioxo-3-(ethylamino)propyl)amino)carbonyl)-3-methylbutyl) carbamic acid 2-methoxyethyl ester] yielded a melting point of 138 to 138.3 °C.
In the case of `CCNC(=O)C(=O)[C@H](Cc1ccccc1)NC(=O)[C@H](CC(C)C)NC(=O)O[C@H]1CCOC1` [compound 2, ((1S)-1-((((1S)-1-Benzyl-2,3-dioxo-3-(ethylamino)propyl)amino)carbonyl)-3-methylbutyl)carbamic acid (3S)-tetrahydrofuran-3-yl ester], the melting point lay within 158.9 to 160.7 °C.
Next, `CCNC(=O)C(=O)[C@H](Cc1ccccc1)NC(=O)[C@H](CC(C)C)NC(=O)OC1CCOCC1` [compound 3, ((1S)-1-((((1S)-1-Benzyl-2,3-dioxo-3-(ethylamino)propyl)amino)carbonyl)-3-methylbutyl)carbamic acid tetrahydro-4H-pyran-4-yl ester]: 140 to 141.8 °C; `CC(C)C[C@H](NC(=O)O[C@H]1CCOC1)C(=O)N[C@@H](Cc1ccccc1)C(=O)C(=O)NC1CC1` [compound 5, ((1S)-1-((((1S)-1-Benzyl-3-(cyclopropylamino)-2,3-dioxopropyl)amino)carbonyl)-3-methylbutyl)carbamic acid (3S)-tetrahydrofuran-3-yl ester]: 169.2 to 170.5 °C.
As for `CC(C)C[C@H](NC(=O)OC1CCOCC1)C(=O)N[C@@H](Cc1ccccc1)C(=O)C(=O)NC1CC1` [compound 6, ((1S)-1-((((1S)-1-Benzyl-3-cyclopropylamino-2,3-dioxopropyl)amino)carbonyl)-3-methylbutyl)carbamic acid tetrahydro-4H-pyran-4-yl ester], the melting point lay within 137 to 138.2 °C.
With `CCCNC(=O)C(=O)[C@H](Cc1ccccc1)NC(=O)[C@H](CC(C)C)NC(=O)OCCOC` [compound 7, ((1S)-1-((((1S)-1-Benzyl-2,3-dioxo-3-(propylamino)propyl)amino)carbonyl)-3-methylbutyl)carbamic acid 2-methoxyethyl ester], the melting point lay within 108.8 to 109.9 °C.
Turning to `COCCOC(=O)N[C@@H](CC(C)C)C(=O)N[C@@H](Cc1ccccc1)C(=O)C(=O)NC1CCC1` [compound 8, ((1S)-1-((((1S)-1-Benzyl-2,3-dioxo-3-(cyclobutylamino)propyl)amino)carbonyl)-3-methylbutyl)carbamic acid 2-methoxyethyl ester], the melting point lay within 114.2 to 115.3 °C.
In the case of `CCCCNC(=O)C(=O)[C@H](Cc1ccccc1)NC(=O)[C@H](CC(C)C)NC(=O)OCCOC` [compound 9, ((1S)-1-((((1S)-1-Benzyl-3-butylamino-2,3-dioxopropyl)amino)carbonyl)-3-methylbutyl)carbamic acid 2-methoxyethyl ester] it was 94 to 95.2 °C.
`COCCOC(=O)N[C@@H](CC(C)C)C(=O)N[C@@H](Cc1ccccc1)C(=O)C(=O)NCC(F)(F)F` [compound 10, ((1S)-1-((((1S)-1-Benzyl-2,3-dioxo-3-(2,2,2-trifluoroethylamino)propyl)amino)carbonyl)-3-methylbutyl)carbamic acid 2-methoxyethyl ester] came in with a melting point of 152.5 to 153.9 °C.
Turning to `COCCOC(=O)N[C@@H](CC(C)C)C(=O)N[C@@H](Cc1ccccc1)C(=O)C(=O)NC1Cc2ccccc2C1` [compound 11, ((1S)-1-((((1S)-1-Benzyl-2,3-dioxo-3-(2-indanylamino)propyl)amino)carbonyl)-3-methylbutyl)carbamic acid 2-methoxyethyl ester], the melting point fell in the range of 141.9 to 143.5 °C.
Next, `COCCNC(=O)C(=O)[C@H](Cc1ccccc1)NC(=O)[C@H](CC(C)C)NC(=O)OCCOC` [compound 12, ((1S)-1-((((1S)-1-Benzyl-2,3-dioxo-3-(2-methoxyethylamino)propyl)amino)carbonyl)-3-methylbutyl)carbamic acid 2-methoxyethyl ester]: 127 to 127.9 °C; `CCNC(=O)C(=O)[C@H](CCc1ccccc1)NC(=O)[C@H](CC(C)C)NC(=O)OCCOC` [compound 13, ((1S)-1-((((1S)-2,3-Dioxo-3-ethylamino-1-(phenylethyl)propyl)amino)carbonyl)-3-methylbutyl)carbamic acid 2-methoxyethyl ester]: 119.1 to 120.4 °C.
In the case of `CCNC(=O)C(=O)[C@H](CCc1ccccc1)NC(=O)[C@H](CC(C)C)NC(=O)O[C@H]1CCOC1` [compound 14, ((1S)-1-((((1S)-2,3-Dioxo-3-ethylamino-1-(phenylethyl)propyl)amino)carbonyl)-3-methylbutyl)carbamic acid (3S)-tetrahydrofuran-3-yl ester] it was 111.9 to 114.5 °C; in that of `COCCOC(=O)N[C@@H](CC(C)C)C(=O)N[C@@H](CCc1ccccc1)C(=O)C(=O)NC1CC1` [compound 15, ((1S)-1-((((1S)-2,3-Dioxo-3-cyclopropylamino-1-(phenylethyl)propyl)amino)carbonyl)-3-methylbutyl)carbamic acid 2-methoxyethyl ester], 109.7 to 111.1 °C; in that of `CC(C)C[C@H](NC(=O)O[C@H]1CCOC1)C(=O)N[C@@H](CCc1ccccc1)C(=O)C(=O)NC1CC1` [compound 16], 115.8 to 116.2 °C.
As to `COCCOC(=O)N[C@@H](CC(C)C)C(=O)N[C@@H](CC(C)C)C(=O)C(=O)NCCOc1ccccc1` [compound 21, ((1S)-1-((((1S)-2,3-Dioxo-1-(2-methylpropyl)-3-(2-phenoxyethyl)aminopropyl)amino)carbonyl)-3-methylbutyl)carbamic acid 2-methoxyethyl ester], the melting point was in the range of 99.7 to 100.5 °C.
Molecule `COCCOCCOC(=O)N[C@@H](CC(C)C)C(=O)N[C@@H](CC(C)C)C(=O)C(=O)NCCOc1ccccc1` [compound 22, ((1S)-1-((((1S)-2,3-Dioxo-1-(2-methylpropyl)-3-(2-phenoxyethyl)aminopropyl)amino)carbonyl)-3-methylbutyl) carbamic acid 5-methoxy-3-oxapentyl ester] gave a melting point of 53.3 to 54.1 °C.

Values taken from US9539298B2, “Lissencephaly therapeutic agent” (OSAKA CITY UNIVERSITY, priority 2010, dated 2017).
